Reference: US20030100572A1, “Novel pyridopyrimidones and uses thereof” (ARIAD PHARMACEUTICALS,INC., priority 2001, published 2003)

Assay: Hydroxyapatite Assay (hydroxyapatite adsorption chromatography)
Format: physicochemical
Conditions: corrected retention K=(retention time-void time)/void on TSK-Gel HA 1000 HPLC column; linear gradient 10 mM to 500 mM sodium phosphate, 0.15 N NaCl, pH 6.8
Excerpt: Hydroxyapatite is the principal mineral component of bone. Hydroxyapatite adsorption chromatography is used as an assay to evaluate the bone-targeting potential of both individual bone-targeting moieties (“monomers”) and of pharmaceuticals incorporating bone-targeting groups.
The rentention time of the compound is expressed in terms of K=(retention time-void time)/void. This K value is corrected using two reference compounds to correct from inter-column and inter-system variation to obtain a K′ value.
Reference Compounds: K′ values were determined for known bone targeted compounds, the bisphosphonate, alendronate and tetracycline.

NCCCC(O)(P(=O)(O)O)P(=O)(O)O [Alendronate, alendronate]
K′ value: 3.7
